Test results as given in the NIST ThermoML archive (doi:10.1016/j.fluid.2015.03.015).

Assay: refractive index (other wavelength) (dimensionless)
Settings: 85 kPa, Liquid, Wavelength=632.8 nm, Minimum Deviation

CCCCCCCC[n+]1ccn(C)c1.F[B-](F)(F)F [1-methyl-3-octylimidazolium tetrafluoroborate]
Settings | refractive index
288.81 K | 1.4343
290.85 K | 1.4338
292.91 K | 1.4332
294.95 K | 1.4327
297 K | 1.4321
297.74 K | 1.4319
299.06 K | 1.4316
299.31 K | 1.4315
300.78 K | 1.4312
301.11 K | 1.431
302.3 K | 1.4307
303.2 K | 1.4304
303.84 K | 1.4303
305.32 K | 1.4299
306.84 K | 1.4295
308.35 K | 1.429

CCCCCCCO [heptan-1-ol]
Settings | refractive index
297.43 K | 1.4217
298.87 K | 1.4211
300.46 K | 1.4205
301.93 K | 1.4199
303.44 K | 1.4193
305.08 K | 1.4187
306.72 K | 1.418
308.35 K | 1.4174

CCCC(C)O (stereo not given) [pentan-2-ol]
Settings | refractive index
289.22 K | 1.407
292.33 K | 1.4058
295.95 K | 1.4042
299.54 K | 1.4027
302.62 K | 1.4013
306.2 K | 1.3997
